Results reported in patent US6420367B1, “Pyrimidine derivatives exhibiting antitumor activity” (Shionogo & Co., Ltd., priority 1998, dated 2002).
In brackets after ≈: the same amount, converted by molar mass.

Assays:
[1] = tested on: DT-R cells (pRRE3-luc-transfected v-ki-ras-transformed NIH3T3 cells); signal derived from Ras oncogene products; assay: Inhibitory effect against cellular signaling derived from Ras oncogene products: luciferase reporter, dissociation of DT-R from DT-C activity (MAC); type: cell-based, mouse; conditions: minimal tested concentration at which luciferase activities of DT-C cells and DT-R cells dissociated
Excerpt: Test Example 1 Inhibitory Effect Against Cellular Signaling Derived From Ras Oncogene Products
1) Establishment of Cell Lines Used in Assay
Based on the reporter plasmid (pGV-P (Toyo Ink, Japan)), in which luciferase gene was ligated to SV40-derived minimal promoter, we constructed a plasmid designated pRRE3-luc by inserting 3 copies of chemically synthesized oligonucleotides (Sequence: CAGGATATGACTCT, derived from mouse NVL-3 (M. A. Reddy et al.(1992)Mol. Endocrinol., 6, 1051)) into upstream of the promoter. v-ki-ras-transformed NIH3T3 cells (DT cells, provided by Dr. Makoto Noda (Kyoto Univ., School of medicine)) were transfected with this plasmid by liposome-mediated transfection and transfected cell lines stably incorporated and maintained each plasmid were obtained. We named pGV-P and pRRE3-transfected cell line as DT-C and DT-R, respectively and used in the assay described below.
2) Preparation of Samples
i) All the cell lines were cultured in Dulbecco's Modified Essential Medium (DMEM: 10% Fetal Calf Serum(FCS: Hyclone, USA)) including […] kanamycin (Meiji Seika, Japan) in humidified incubator under condition of 5% CO2 at 37° C.
ii) DT-C and DT-R cells were seeded at 2500 cells/well into flat-bottom 96 well multiplate (Sumitomo bakelite) and incubated for 24 hours.
iii) Test compounds were prepared as 1 mg/ml DMSO solution.
iv) The solution of test compounds were added to the culture. Tested compounds are used at the concentration from […] to 0.51 ng/ml with by 3-fold dilution.
v) After 24 hours, the culture supernatant was completely aspirated and […] of cell-lysing solution (PGC-50 (Toyo Ink, Japan)) was added before cells were dried up. In order to the cells were lysed completely, multiwell plates were left at room temperature for 10 to 30 min. The plates were wrapped up and stored at −20° C. till the day of measurement.
3) Measurement of Samples
i) Melt the samples by putting 96 well multiplate at 37° C. and add 90 μl/well 25 mM Tris (pH 7.5).
ii) Transfer 50 μl of the sample (110 μl) to the 96 well microplate for measurement (Microlite 1 (Dynatech)).
iii) Measure the samples by the luminometer, LUMINOUS CT9000D (Dia-Yatron, Japan). We used Pickagene luminescence kit PGL2000 or LT2.0 (Toyo Ink, Japan) as substrates for luminescence measurement (50 μl/well).
4) Judgment of the Results
i) The luciferase activity of DT-C cells and DT-R cells were plotted in the graph where the relative activity and the compound concentration were expressed as Y-axis and X-axis, respectively. We judged by the degree of dissociation between the activities of DT-C cells and DT-R cells as an index.
ii) Concretely, efficacy of the compound was expressed by two values described below.
a) Among the points of concentration tested, the minimal concentration (Minimal Active Concentration: MAC), at which the activities of DT-C cells and DT-R cells dissociated, was shown as an index of efficacy of the compound.

[2] = tested on: human colon cancer HT29; assay: In vitro cell growth inhibition test, MTT assay; type: cell-based; conditions: MTT assay 4 days after compound addition
Excerpt: (§1) Test Example 2 In Vitro Cell Growth Inhibition Test Cells and MTT Assay
(§2) Human squamous lung cancer […], human squamous lung cancer Ma44, human lung adenocarcinoma A549, human colon cancer HT29 and human pancreas cancer PANC-1 were used.

[3] = tested on: human lung adenocarcinoma A549; assay: In vitro cell growth inhibition test, MTT assay; type: cell-based; conditions: MTT assay 4 days after compound addition
Excerpt: as §1, §2

[4] = tested on: human pancreas cancer PANC-1; assay: In vitro cell growth inhibition test, MTT assay; type: cell-based; conditions: MTT assay 4 days after compound addition
Excerpt: as §1, §2

[5] = tested on: human squamous lung cancer Ma44; assay: In vitro cell growth inhibition test, MTT assay; type: cell-based; conditions: MTT assay 4 days after compound addition
Excerpt: as §1, §2

[6] = tested on: human squamous lung cancer RERF-RC-AI; assay: In vitro cell growth inhibition test, MTT assay; type: cell-based; conditions: MTT assay 4 days after compound addition
Excerpt: as §1, §2

For `CCNC(=Nc1nc(C)ncc1CSc1nnc(-c2ccc(N)cc2OC)o1)NCC` [Compound A-141], the “MAC (Minimal Active Concentration)” value [1] was 0.0412 µg/mL, the “IC50, HT29” value [2] was 0.032 µg/mL (≈ 0.0723 µM) and the “IC50, A549” value [3] was 0.051 µg/mL (≈ 0.115 µM). For the same compound, the “IC50, PANC-1” value [4] was 0.021 µg/mL (≈ 0.0475 µM), the “IC50, Ma44” value [5] was 0.085 µg/mL (≈ 0.192 µM) and the “IC50, RERF-LC-AI” value [6] was 0.016 µg/mL (≈ 0.0362 µM).

With `CCCNC(=Nc1nc(C)ncc1CSc1nnc(-c2ccc(N)cc2)o1)NC` [Compound A-148] the “MAC (Minimal Active Concentration)” value [1] was 0.123 µg/mL, the “IC50, HT29” value [2] was 0.016 µg/mL (≈ 0.0388 µM) and the “IC50, A549” value [3] was 0.49 µg/mL (≈ 1.19 µM). The “IC50, PANC-1” value [4] was 0.015 µg/mL (≈ 0.0364 µM), the “IC50, Ma44” value [5] was 0.086 µg/mL (≈ 0.208 µM) and the “IC50, RERF-LC-AI” value [6] was 0.011 µg/mL (≈ 0.0267 µM).

With `CCCNC(=Nc1nc(CC)ncc1CSc1nnc(-c2ccc([N+](=O)[O-])cc2)o1)NC` [Compound A-150] the “MAC (Minimal Active Concentration)” value [1] was 0.123 µg/mL, the “IC50, HT29” value [2] was 0.031 µg/mL (≈ 0.0679 µM) and the “IC50, A549” value [3] was 0.005 µg/mL (≈ 0.011 µM). The “IC50, PANC-1” value [4] was 0.037 µg/mL (≈ 0.081 µM), the “IC50, Ma44” value [5] was 0.14 µg/mL (≈ 0.307 µM) and the “IC50, RERF-LC-AI” value [6] was 0.016 µg/mL (≈ 0.035 µM).

For `CCCNC(=Nc1nc(CC)ncc1CSc1nnc(-c2ccc(N)cc2)o1)NC` [Compound A-151], the “MAC (Minimal Active Concentration)” value [1] was 0.37 µg/mL, the “IC50, HT29” value [2] was 0.02 µg/mL (≈ 0.0469 µM) and the “IC50, A549” value [3] was 0.07 µg/mL (≈ 0.164 µM). For the same compound, the “IC50, PANC-1” value [4] was 0.024 µg/mL (≈ 0.0563 µM), the “IC50, Ma44” value [5] was 0.16 µg/mL (≈ 0.375 µM) and the “IC50, RERF-LC-AI” value [6] was 0.013 µg/mL (≈ 0.0305 µM).

`Cc1ncc(CSc2nnc(-c3ccc([N+](=O)[O-])cc3)o2)c(N=C(NC(C)C)NC(C)C)n1` [Compound A-165] was tested, and the “MAC (Minimal Active Concentration)” value [1] was 0.123 µg/mL, the “IC50, HT29” value [2] was 0.052 µg/mL (≈ 0.111 µM) and the “IC50, A549” value [3] was 0.095 µg/mL (≈ 0.202 µM). For the same compound, the “IC50, PANC-1” value [4] was 0.05 µg/mL (≈ 0.106 µM), the “IC50, Ma44” value [5] was 0.055 µg/mL (≈ 0.117 µM) and the “IC50, RERF-LC-AI” value [6] was 0.025 µg/mL (≈ 0.0531 µM).

With `Cc1ncc(CSc2nnc(-c3ccc(N)cc3)o2)c(N=C(NC(C)C)NC(C)C)n1` [Compound A-166] the “MAC (Minimal Active Concentration)” value [1] was 0.123 µg/mL, the “IC50, HT29” value [2] was 0.033 µg/mL (≈ 0.0749 µM) and the “IC50, A549” value [3] was 0.056 µg/mL (≈ 0.127 µM). The “IC50, PANC-1” value [4] was 0.028 µg/mL (≈ 0.0636 µM), the “IC50, Ma44” value [5] was 0.049 µg/mL (≈ 0.111 µM) and the “IC50, RERF-LC-AI” value [6] was 0.016 µg/mL (≈ 0.0363 µM).

For `CCCNC(=Nc1nc(C)ncc1CSc1nnc(-c2ccc(N)cc2)o1)NCC` [Compound A-167], the “MAC (Minimal Active Concentration)” value [1] was 0.0137 µg/mL, the “IC50, HT29” value [2] was 0.0061 µg/mL (≈ 0.0143 µM) and the “IC50, A549” value [3] was 0.012 µg/mL (≈ 0.0281 µM). For the same compound, the “IC50, PANC-1” value [4] was 0.006 µg/mL (≈ 0.0141 µM), the “IC50, Ma44” value [5] was 0.025 µg/mL (≈ 0.0586 µM) and the “IC50, RERF-LC-AI” value [6] was 0.0032 µg/mL (≈ 0.0075 µM).

For `CCCCNC(=Nc1nc(C)ncc1CSc1nnc(-c2ccc(N)cc2)o1)NCCCC` [Compound A-169], the “MAC (Minimal Active Concentration)” value [1] was 0.0412 µg/mL, the “IC50, HT29” value [2] was 0.027 µg/mL (≈ 0.0576 µM) and the “IC50, A549” value [3] was 0.041 µg/mL (≈ 0.0875 µM). The “IC50, PANC-1” value [4] was 0.025 µg/mL (≈ 0.0533 µM), the “IC50, Ma44” value [5] was 0.05 µg/mL (≈ 0.107 µM) and the “IC50, RERF-LC-AI” value [6] was 0.021 µg/mL (≈ 0.0448 µM).

For `CNC(=Nc1nc(C)ncc1CSc1nnc(-c2ccc(N)cc2)o1)NC(C)C` [Compound A-171], the “MAC (Minimal Active Concentration)” value [1] was 0.0137 µg/mL, the “IC50, HT29” value [2] was 0.0064 µg/mL (≈ 0.0155 µM) and the “IC50, A549” value [3] was 0.012 µg/mL (≈ 0.0291 µM). For the same compound, the “IC50, PANC-1” value [4] was 0.006 µg/mL (≈ 0.0145 µM), the “IC50, Ma44” value [5] was 0.013 µg/mL (≈ 0.0315 µM) and the “IC50, RERF-LC-AI” value [6] was 0.004 µg/mL (≈ 0.0097 µM).

`CCNC(=Nc1ncncc1CSc1nnc(-c2ccc([N+](=O)[O-])cc2)o1)NCC` [Compound A-172] was tested, and the “MAC (Minimal Active Concentration)” value [1] was 0.0137 µg/mL, the “IC50, HT29” value [2] was 0.0033 µg/mL (≈ 0.0077 µM) and the “IC50, A549” value [3] was 0.0075 µg/mL (≈ 0.0175 µM). For the same compound, the “IC50, PANC-1” value [4] was 0.0031 µg/mL (≈ 0.00723 µM), the “IC50, Ma44” value [5] was 0.0038 µg/mL (≈ 0.00887 µM) and the “IC50, RERF-LC-AI” value [6] was 0.0015 µg/mL (≈ 0.0035 µM).
